In ChEMBL document CHEMBL1697723, “A predictive ligand-based Bayesian model for human drug-induced liver injury” (Drug Metab Dispos, 2010):

The compounds below were run on Hepatotoxicity (assay: Human drug-induced liver injury (DILI) modelling dataset from Ekins et al). Details: not given.

Question: With `CN1C[C@H](C(=O)N[C@]2(C)O[C@@]3(O)[C@@H]4CCCN4C(=O)[C@H](Cc4ccccc4)N3C2=O)C=C2c3cccc4[nH]cc(c34)C[C@H]21.CN1C[C@H](C(=O)N[C@]2(C)O[C@@]3(O)[C@@H]4CCCN4C(=O)[C@H](Cc4ccccc4)N3C2=O)C=C2c3cccc4[nH]cc(c34)C[C@H]21.O=C(O)C(O)C(O)C(=O)O` [ERGOTAMINE TARTRATE] as the compound, how does the Hepatotoxicity read?
Answer: DILI negative (test set)

Question: Which Hepatotoxicity does the source give for `CCC(=O)O[C@H]1[C@H](O[C@@H]2[C@@H](C)[C@H](O[C@H]3C[C@@](C)(OC)[C@@H](O)[C@H](C)O3)[C@@H](C)C(=O)O[C@H](CC)[C@@](C)(O)[C@H](O)[C@@H](C)C(=O)[C@H](C)C[C@@]2(C)O)O[C@H](C)C[C@@H]1N(C)C.CCCCCCCCCCCCOS(=O)(=O)O` [ERYTHROMYCIN ESTOLATE] here?
Answer: DILI positive (training set)

Question: For `CC[C@H]1OC(=O)[C@H](C)[C@@H](O[C@H]2C[C@@](C)(OC)[C@@H](O)[C@H](C)O2)[C@H](C)[C@@H](O[C@@H]2O[C@H](C)C[C@H](N(C)C)[C@H]2O)[C@](C)(O)C[C@@H](C)C(=O)[C@H](C)[C@@H](O)[C@]1(C)O` [ERYTHROMYCIN], which Hepatotoxicity is on record?
Answer: DILI negative (training set)

Question: How did the Hepatotoxicity turn out when `C[C@]12CC[C@@H]3c4ccc(O)cc4CC[C@H]3[C@@H]1CC[C@@H]2O[C@@H]1O[C@H](C(=O)O)[C@@H](O)[C@H](O)[C@H]1O` [ESTRADIOL 17B GLUCURONIDE] was run?
Answer: DILI positive (training set)

Question: How did the Hepatotoxicity turn out when `C[C@]12CC[C@@H]3c4ccc(O)cc4CC[C@H]3[C@@H]1CC[C@@H]2O` [ESTRADIOL] was run?
Answer: DILI negative (training set)

Question: How did the Hepatotoxicity turn out when `C[C@]12CC[C@@H]3c4ccc(O)cc4CC[C@H]3[C@@H]1CCC2=O` [ESTRONE] was run?
Answer: DILI positive (training set)

Question: How did the Hepatotoxicity turn out when `CS(=O)(=O)OCCOS(C)(=O)=O` [ETHANE DIMETHANE SULFONATE] was run?
Answer: DILI positive (test set)

Question: Which Hepatotoxicity does the source give for `C#C[C@]1(O)CC[C@H]2[C@@H]3CCc4cc(O)ccc4[C@H]3CC[C@@]21C` [ETHINYL ESTRADIOL] here?
Answer: DILI positive (test set)

Question: How did the Hepatotoxicity turn out when `CCSCC[C@H](N)C(=O)O` [ETHIONINE] was run?
Answer: DILI positive (training set)

Question: `CCC1(C)CC(=O)NC1=O` (stereo not drawn) [ETHOSUXIMIDE] was tested. Which Hepatotoxicity did it give?
Answer: DILI positive (test set)

Question: For `C#C[C@]1(OC(C)=O)CC[C@H]2[C@@H]3CCC4=C[C@@H](OC(C)=O)CC[C@@H]4[C@H]3CC[C@@]21C` [ETHYNODIOL DIACETATE], which Hepatotoxicity is on record?
Answer: DILI positive (training set)

Question: For `NC(=O)OCC(COC(N)=O)c1ccccc1` [FELBAMATE], which Hepatotoxicity is on record?
Answer: DILI positive (training set)

Question: For `CC(C)OC(=O)C(C)(C)Oc1ccc(C(=O)c2ccc(Cl)cc2)cc1` [FENOFIBRATE], which Hepatotoxicity is on record?
Answer: DILI positive (training set)

Question: With `CC(C(=O)[O-])c1cccc(Oc2ccccc2)c1.[Na+]` (stereo not drawn) [FENOPROFEN SODIUM] as the compound, how does the Hepatotoxicity read?
Answer: DILI positive (training set)

Question: For `O=c1[nH]c(=O)n([C@@H]2O[C@H](CO)[C@@H](O)[C@@H]2F)cc1I` [FIALURIDINE], which Hepatotoxicity is on record?
Answer: DILI positive (test set)

Question: `O=C(COc1ccc(Cl)cc1)N1CCN(Cc2ccc3c(c2)OCO3)CC1` [FIPEXIDE] was tested. Which Hepatotoxicity did it give?
Answer: DILI positive (test set)

Question: How did the Hepatotoxicity turn out when `CC(=O)O.O=C(NCC1CCCCN1)c1cc(OCC(F)(F)F)ccc1OCC(F)(F)F` (stereo not drawn) [FLECAINIDE ACETATE] was run?
Answer: DILI positive (training set)

Question: Which Hepatotoxicity does the source give for `O=c1[nH]c(=O)n([C@H]2C[C@H](O)[C@@H](CO)O2)cc1F` [FLOXURIDINE] here?
Answer: DILI positive (training set)

Same assay, conditions: Liver

Question: With `OCCO` [ETHYLENE GLYCOL] as the compound, how does the Hepatotoxicity read?
Answer: DILI positive (test set)

Question: Which Hepatotoxicity does the source give for `COc1cc([C@@H]2c3cc4c(cc3[C@@H](O[C@@H]3O[C@@H]5CO[C@@H](C)O[C@H]5[C@H](O)[C@H]3O)[C@H]3COC(=O)[C@H]23)OCO4)cc(OC)c1O` [ETOPOSIDE] here?
Answer: DILI positive (training set)

Question: How did the Hepatotoxicity turn out when `NC(N)=Nc1nc(CSCCC(N)=NS(N)(=O)=O)cs1` [FAMOTIDINE] was run?
Answer: DILI negative (training set)

Question: How did the Hepatotoxicity turn out when `CC(C)(C(=O)O)c1ccc(C(O)CCCN2CCC(C(O)(c3ccccc3)c3ccccc3)CC2)cc1` (stereo not drawn) [FEXOFENADINE] was run?
Answer: DILI negative (test set)

Question: How did the Hepatotoxicity turn out when `OC(Cn1cncn1)(Cn1cncn1)c1ccc(F)cc1F` [FLUCONAZOLE] was run?
Answer: DILI positive (training set)
